From paper PMC10044120, “Potent and selective covalent inhibition of the papain-like protease from SARS-CoV-2” (Nature Communications, 2023)
Where two headings read alike, the source gives them in different places.

Assays:
USP2 = target: T1, USP2 (Homo sapiens, UniProt O75604); assay: biochemical; details: USP2 10 nM, Ub-rhodamine110
T1 construct: USP2c, USP4, USP7, USP8c, USP15, USP30WT, and UCH-L1; purchased LifeSensors, Inc. (Malvern, PA)

USP7 = target: T2, USP7 (Homo sapiens, UniProt Q93009); assay: biochemical; details: USP7 5 nM, Ub-CHOP2
T2 construct: purchased LifeSensors, Inc. (Malvern, PA)
T2 sequence (Q93009 whole entry): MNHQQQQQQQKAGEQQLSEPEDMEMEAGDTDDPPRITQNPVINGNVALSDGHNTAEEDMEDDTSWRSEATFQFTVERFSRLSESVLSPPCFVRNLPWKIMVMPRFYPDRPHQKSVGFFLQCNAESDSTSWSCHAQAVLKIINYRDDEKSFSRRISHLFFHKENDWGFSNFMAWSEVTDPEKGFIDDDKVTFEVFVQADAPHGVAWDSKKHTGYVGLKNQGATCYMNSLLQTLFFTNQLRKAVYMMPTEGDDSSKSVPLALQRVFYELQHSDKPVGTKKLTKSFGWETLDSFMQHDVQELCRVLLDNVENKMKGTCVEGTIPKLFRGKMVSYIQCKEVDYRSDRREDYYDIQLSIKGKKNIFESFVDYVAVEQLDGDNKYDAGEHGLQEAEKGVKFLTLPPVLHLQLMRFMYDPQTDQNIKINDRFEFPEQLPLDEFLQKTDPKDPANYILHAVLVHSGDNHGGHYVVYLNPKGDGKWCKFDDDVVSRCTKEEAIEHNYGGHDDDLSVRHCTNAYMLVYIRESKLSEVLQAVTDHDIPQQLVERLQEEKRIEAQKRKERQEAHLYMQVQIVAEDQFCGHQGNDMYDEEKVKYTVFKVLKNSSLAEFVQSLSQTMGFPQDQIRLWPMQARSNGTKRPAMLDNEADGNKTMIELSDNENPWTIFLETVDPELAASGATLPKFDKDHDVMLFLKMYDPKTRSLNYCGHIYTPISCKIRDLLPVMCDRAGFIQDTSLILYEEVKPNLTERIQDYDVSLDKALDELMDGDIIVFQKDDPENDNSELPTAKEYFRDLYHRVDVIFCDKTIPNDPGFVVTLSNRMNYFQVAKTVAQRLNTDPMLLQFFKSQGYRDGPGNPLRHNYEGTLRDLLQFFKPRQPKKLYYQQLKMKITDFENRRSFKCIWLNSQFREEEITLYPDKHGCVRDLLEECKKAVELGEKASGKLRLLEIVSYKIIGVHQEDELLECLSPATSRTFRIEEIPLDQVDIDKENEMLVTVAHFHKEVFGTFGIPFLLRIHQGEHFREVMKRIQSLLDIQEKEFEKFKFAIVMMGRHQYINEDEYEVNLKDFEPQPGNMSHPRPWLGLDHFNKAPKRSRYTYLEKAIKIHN

[1] = Metabolic stability in rat liver microsomes; details: Sprague-Dawley
PLpro = PLpro (Severe acute respiratory syndrome coronavirus 2, UniProt P0DTD1); assay: Intact protein ESI-MS to assess covalent adduct formation; format: binding, SARS-CoV-2; parameters: unit not given here
SARS-CoV-2 PLpro [2] = target: T3, SARS-CoV-2 PLpro (Severe acute respiratory syndrome coronavirus 2, UniProt P0DTD1); assay: biochemical; details: PLpro 50 nM, Ub-rhodamine110
USP15 = target: T4, USP15 (Homo sapiens, UniProt Q9Y4E8); assay: DUB selectivity assay, USP15 (Ub-rhodamine110); format: biochemical
T4 construct: purchased LifeSensors, Inc. (Malvern, PA)
T4 sequence (Q9Y4E8 1-981): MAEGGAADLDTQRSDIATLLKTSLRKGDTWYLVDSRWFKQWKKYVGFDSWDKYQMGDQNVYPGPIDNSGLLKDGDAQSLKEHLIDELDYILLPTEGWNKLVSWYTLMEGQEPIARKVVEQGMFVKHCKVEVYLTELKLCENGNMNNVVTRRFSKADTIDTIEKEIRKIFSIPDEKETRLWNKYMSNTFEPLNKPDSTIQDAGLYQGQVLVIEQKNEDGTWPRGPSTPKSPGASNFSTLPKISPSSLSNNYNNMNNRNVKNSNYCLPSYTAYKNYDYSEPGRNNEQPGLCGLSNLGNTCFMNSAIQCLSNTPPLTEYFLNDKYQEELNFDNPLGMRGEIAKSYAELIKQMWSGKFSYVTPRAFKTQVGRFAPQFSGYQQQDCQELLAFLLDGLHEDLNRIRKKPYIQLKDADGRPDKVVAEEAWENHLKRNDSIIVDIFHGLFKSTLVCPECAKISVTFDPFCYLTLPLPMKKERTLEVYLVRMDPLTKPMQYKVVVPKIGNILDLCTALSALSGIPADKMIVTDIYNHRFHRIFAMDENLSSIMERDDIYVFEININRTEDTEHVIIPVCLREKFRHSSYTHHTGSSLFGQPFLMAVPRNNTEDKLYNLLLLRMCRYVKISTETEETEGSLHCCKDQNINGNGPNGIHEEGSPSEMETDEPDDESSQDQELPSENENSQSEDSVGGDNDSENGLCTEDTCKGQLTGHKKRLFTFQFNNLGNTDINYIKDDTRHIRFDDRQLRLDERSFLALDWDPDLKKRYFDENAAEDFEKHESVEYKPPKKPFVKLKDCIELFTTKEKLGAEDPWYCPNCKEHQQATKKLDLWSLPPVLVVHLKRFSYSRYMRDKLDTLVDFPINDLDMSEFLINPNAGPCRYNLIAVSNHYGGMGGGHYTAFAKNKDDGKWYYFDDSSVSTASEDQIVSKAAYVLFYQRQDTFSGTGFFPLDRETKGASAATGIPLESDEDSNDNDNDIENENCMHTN

PLpro from SARS-CoV-2 = PLpro from SARS-CoV-2 (Severe acute respiratory syndrome coronavirus 2, UniProt P0DTD1); assay: biochemical; format: biochemical; details: for remaining activity at 20 µM: inhibitor 20.00 uM
[3] = Metabolic stability in rat liver S9 fraction; details: Sprague-Dawley
[4] = Metabolic stability in human liver microsomes
[5] = Metabolic stability in mouse liver microsomes; details: CD-1, mouse
[6] = Metabolic stability in mouse liver S9 fraction; details: CD-1, mouse
USP8 = target: T5, USP8 (Homo sapiens, UniProt P40818); assay: biochemical; details: USP8 10 nM, Ub-rhodamine110
T5 construct: USP2c, USP4, USP7, USP8c, USP15, USP30WT, and UCH-L1; purchased LifeSensors, Inc. (Malvern, PA)
T5 sequence (P40818 777-1109): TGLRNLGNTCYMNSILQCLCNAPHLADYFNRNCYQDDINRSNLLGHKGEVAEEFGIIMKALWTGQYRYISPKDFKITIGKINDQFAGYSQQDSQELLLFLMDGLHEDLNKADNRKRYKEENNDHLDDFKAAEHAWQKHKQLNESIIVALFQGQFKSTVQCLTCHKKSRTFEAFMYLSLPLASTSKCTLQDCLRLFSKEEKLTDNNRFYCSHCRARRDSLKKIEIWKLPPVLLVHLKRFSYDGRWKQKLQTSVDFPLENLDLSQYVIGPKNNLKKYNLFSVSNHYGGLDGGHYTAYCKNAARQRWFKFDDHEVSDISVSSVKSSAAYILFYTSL

SARS-CoV-2 PLpro [7] = target: T3, SARS-CoV-2 PLpro; assay: biochemical; details: PLpro 10 nM, ISG15-CHOP2
USP4 = target: T6, USP4 (Homo sapiens, UniProt Q13107); assay: DUB selectivity assay, USP4 (Ub-rhodamine110); format: biochemical
T6 construct: purchased LifeSensors, Inc. (Malvern, PA)
T6 sequence (Q13107 1-963): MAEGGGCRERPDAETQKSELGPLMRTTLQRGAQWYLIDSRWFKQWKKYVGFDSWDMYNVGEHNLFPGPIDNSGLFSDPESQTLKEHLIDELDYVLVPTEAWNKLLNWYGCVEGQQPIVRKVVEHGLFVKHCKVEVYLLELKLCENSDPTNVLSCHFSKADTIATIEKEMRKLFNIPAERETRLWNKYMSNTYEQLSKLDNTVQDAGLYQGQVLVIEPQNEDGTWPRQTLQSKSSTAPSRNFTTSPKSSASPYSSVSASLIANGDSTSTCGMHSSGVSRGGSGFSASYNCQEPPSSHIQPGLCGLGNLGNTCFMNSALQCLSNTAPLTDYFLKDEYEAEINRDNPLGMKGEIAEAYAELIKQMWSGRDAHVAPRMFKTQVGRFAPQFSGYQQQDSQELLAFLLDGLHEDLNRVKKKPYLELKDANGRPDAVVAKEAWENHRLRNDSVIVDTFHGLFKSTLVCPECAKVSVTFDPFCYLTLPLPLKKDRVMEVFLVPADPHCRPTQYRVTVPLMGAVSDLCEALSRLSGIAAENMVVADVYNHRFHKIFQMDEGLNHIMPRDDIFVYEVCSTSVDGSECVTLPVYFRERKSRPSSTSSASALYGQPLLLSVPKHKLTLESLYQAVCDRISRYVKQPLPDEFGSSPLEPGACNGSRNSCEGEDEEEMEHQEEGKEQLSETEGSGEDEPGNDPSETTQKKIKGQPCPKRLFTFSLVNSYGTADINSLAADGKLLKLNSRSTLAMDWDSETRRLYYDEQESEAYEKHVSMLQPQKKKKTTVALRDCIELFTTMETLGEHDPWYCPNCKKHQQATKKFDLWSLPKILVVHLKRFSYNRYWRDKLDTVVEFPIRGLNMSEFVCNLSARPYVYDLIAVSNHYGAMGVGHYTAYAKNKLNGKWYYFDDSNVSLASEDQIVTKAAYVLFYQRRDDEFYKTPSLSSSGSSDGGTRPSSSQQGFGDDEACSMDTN

T1 sequence (O75604 267-599): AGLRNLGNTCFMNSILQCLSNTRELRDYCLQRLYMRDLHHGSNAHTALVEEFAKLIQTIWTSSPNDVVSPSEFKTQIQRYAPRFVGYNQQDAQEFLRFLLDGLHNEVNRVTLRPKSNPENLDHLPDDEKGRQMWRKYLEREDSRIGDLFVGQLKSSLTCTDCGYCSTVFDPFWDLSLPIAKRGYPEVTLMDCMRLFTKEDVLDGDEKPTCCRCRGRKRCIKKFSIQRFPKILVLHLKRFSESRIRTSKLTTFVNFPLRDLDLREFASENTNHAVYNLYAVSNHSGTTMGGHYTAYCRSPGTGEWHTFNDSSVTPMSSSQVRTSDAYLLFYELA

SMILES: COC(=O)/C=C/C(=O)NNC(=O)CCc1ccccc1C(=O)N[C@H](C)c1cccc2ccccc12 [Compound 7, methyl(R,E)-4-(2-(3-(2-((1-(naphthalen-1 yl)ethyl)carbamoyl)phenyl)propanoyl)hydrazineyl)-4-oxobut-2-enoate]
- IC50 (USP2): > 30 µM
- IC50 (USP7): > 30 µM
- half-life [1]: 46 min
- microsomal CLint [1]: 151 µL/min/mg
- Measured adduct mass (PLpro): 474
- Hill slope (SARS-CoV-2 PLpro [2]): 1.06
- IC50 (USP15): > 30 µM
- remaining activity at 0.06 µM (PLpro from SARS-CoV-2; 0.5 h, 0.06 uM inhibitor): 66.6%
- remaining activity at 0.2 µM (PLpro from SARS-CoV-2; 0.5 h, 0.20 uM inhibitor): 17.4%
- remaining activity at 20.03 µM (PLpro from SARS-CoV-2; 0.5 h, 20.03 uM inhibitor): 2.85%
- remaining activity at 200 µM (PLpro from SARS-CoV-2; 0.5 h, 200.00 uM inhibitor, 30-min preincubation): 4.35%
- remaining activity at 0.06 µM (PLpro from SARS-CoV-2; 0.5 h, inhibitor 0.06 uM): 66.6%
- remaining activity at 0.2 µM (PLpro from SARS-CoV-2; 0.5 h, inhibitor 0.20 uM): 17.4%
- remaining activity at 20 µM (PLpro from SARS-CoV-2; 0.5 h): 2.85%
- remaining activity at 200 µM (PLpro from SARS-CoV-2; 0.5 h, inhibitor 200.00 uM): 4.35%
- half-life [3]: 31 min
- microsomal CLint [3]: 75.5 µL/min/mg
- half-life [4]: 50 min
- microsomal CLint [4]: 139 µL/min/mg
- half-life [5]: 13 min
- microsomal CLint [5]: 540 µL/min/mg
- half-life [6]: 9 min
- microsomal CLint [6]: 266 µL/min/mg
- IC50 (USP8): > 30 µM
- Hill slope (SARS-CoV-2 PLpro [7]): 1.34
- IC50 (USP4): > 30 µM

SMILES: C[C@@H](NC(=O)c1ccccc1CCC(=O)NNC(=O)CCl)c1cccc2ccccc12 [Compound 9, (R)-2-(3-(2-(2-chloroacetyl)hydrazineyl)-3-oxopropyl)-N-(1-(naphthalen-1-yl)ethyl)benzamide]
- IC50 (USP2): > 30 µM
- IC50 (USP7): > 30 µM
- half-life [1]: 13 min
- microsomal CLint [1]: 515 µL/min/mg
- Measured adduct mass (PLpro): 401
- Hill slope (SARS-CoV-2 PLpro [2]): 0.705
- IC50 (SARS-CoV-2 PLpro [2]): 1.96 µM
- IC50 (USP15; USP15 1 nM, Ub-rhodamine110, read-out: IC50): > 30 µM
- remaining activity at 6.34 µM (PLpro from SARS-CoV-2; 0.5 h, inhibitor 6.34 uM): 38.1%
- remaining activity at 20 µM (PLpro from SARS-CoV-2; 0.5 h): 17.8%
- IC50 (PLpro from SARS-CoV-2; after 30-min incubation, purified PLpro, Z-RLRGG-AMC substrate): 5.4 µM
- half-life [3]: 16 min
- microsomal CLint [3]: 140 µL/min/mg
- half-life [4]: 7 min
- microsomal CLint [4]: 975 µL/min/mg
- half-life [5]: 5 min
- microsomal CLint [5]: 1330 µL/min/mg
- half-life [6]: 4 min
- microsomal CLint [6]: 544 µL/min/mg
- IC50 (USP8): > 30 µM
- Hill slope (SARS-CoV-2 PLpro [7]): 0.817
- IC50 (SARS-CoV-2 PLpro [7]): 20.2 µM
- IC50 (USP4; USP4 10 nM, Ub-rhodamine110, read-out: IC50): > 30 µM
